# Reference: article PMC10954709, “Structure of an open KATP channel reveals tandem PIP2 binding sites mediating the Kir6.2 and SUR1 regulatory interface” (Nature Communications, 2024)
# Where “and” joins values, the source holds several entries; their conditions need not be identical. Equal entries are not always repeated.
# Assays:
# KATP channels = system: KATP channels; parameters: method as in PMID 12525701; settings: cited from earlier work
# His175 = His175 (UniProt position 175, KTAQAHRRAET); assay: electrophysiology; settings: cited from earlier work
# [1] = target: T1, SUR1^K134A/Kir6.2 channel (UniProt P70673+Q09427, K134A); assay: PIP2 response, inside-out patch-clamp recording, COSm6 cells; format: biochemical, rat Kir6.2, hamster SUR1; settings: 5 μM PIP2; −50 mV; mean (± SEM)
# T1 construct: expressed in transfected cells; host or cells: COSm6
# T1 sequence (Q09427 whole entry K134A): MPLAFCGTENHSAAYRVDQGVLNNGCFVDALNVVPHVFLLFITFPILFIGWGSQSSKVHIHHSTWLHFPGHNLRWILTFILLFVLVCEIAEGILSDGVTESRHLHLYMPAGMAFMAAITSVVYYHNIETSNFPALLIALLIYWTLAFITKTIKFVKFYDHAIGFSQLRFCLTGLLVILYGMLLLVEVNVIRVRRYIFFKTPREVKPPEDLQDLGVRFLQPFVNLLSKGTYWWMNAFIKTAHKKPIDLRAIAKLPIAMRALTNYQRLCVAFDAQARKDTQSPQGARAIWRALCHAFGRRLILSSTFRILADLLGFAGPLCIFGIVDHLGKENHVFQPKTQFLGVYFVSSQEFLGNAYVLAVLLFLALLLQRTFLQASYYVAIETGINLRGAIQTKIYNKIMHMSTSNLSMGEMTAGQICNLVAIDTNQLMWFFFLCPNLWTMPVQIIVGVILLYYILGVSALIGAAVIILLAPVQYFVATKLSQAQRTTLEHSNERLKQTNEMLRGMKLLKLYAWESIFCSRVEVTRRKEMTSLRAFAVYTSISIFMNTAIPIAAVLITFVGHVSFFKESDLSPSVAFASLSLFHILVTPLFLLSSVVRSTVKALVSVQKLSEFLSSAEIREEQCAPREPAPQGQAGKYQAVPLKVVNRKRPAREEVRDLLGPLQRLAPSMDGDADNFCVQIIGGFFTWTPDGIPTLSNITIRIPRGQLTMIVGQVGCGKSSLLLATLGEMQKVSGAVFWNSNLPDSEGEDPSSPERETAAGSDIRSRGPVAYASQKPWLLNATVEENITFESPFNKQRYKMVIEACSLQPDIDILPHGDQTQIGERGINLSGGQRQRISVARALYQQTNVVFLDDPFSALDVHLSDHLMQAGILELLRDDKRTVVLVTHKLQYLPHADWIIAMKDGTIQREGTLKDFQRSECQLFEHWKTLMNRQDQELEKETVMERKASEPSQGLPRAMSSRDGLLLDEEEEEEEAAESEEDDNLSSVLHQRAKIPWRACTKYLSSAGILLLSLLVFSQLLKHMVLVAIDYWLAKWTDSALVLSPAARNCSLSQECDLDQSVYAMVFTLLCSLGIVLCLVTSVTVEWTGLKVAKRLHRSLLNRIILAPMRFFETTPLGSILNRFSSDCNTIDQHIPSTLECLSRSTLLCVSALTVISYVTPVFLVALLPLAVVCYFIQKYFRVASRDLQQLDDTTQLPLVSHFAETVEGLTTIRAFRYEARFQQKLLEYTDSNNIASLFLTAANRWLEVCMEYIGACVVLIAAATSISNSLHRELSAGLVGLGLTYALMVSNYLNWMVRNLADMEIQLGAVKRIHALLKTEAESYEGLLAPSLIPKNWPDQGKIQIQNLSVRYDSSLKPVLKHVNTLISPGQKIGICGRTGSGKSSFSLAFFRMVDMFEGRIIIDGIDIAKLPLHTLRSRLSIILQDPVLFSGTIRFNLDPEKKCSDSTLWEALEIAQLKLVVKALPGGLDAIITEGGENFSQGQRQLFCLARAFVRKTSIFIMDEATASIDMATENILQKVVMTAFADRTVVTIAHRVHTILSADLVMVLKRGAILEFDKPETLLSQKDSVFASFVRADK
# T1 sequence (P70673 whole entry): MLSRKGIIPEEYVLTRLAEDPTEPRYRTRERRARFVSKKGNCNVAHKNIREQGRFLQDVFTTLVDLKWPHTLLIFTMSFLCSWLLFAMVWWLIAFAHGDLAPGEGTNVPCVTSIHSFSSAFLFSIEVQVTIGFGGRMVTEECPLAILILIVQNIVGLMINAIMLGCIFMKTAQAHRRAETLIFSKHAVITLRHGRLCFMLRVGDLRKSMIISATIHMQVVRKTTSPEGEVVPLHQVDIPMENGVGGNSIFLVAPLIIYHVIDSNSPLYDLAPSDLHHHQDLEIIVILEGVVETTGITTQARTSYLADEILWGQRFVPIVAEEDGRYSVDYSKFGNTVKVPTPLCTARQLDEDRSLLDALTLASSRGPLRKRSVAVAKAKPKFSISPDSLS
# Description: (§1) Fig. 3 Functional testing of the two PIP2 binding sites. a Representative inside-out patch-clamp recordings (−50mV, inward currents shown as upward deflections; the red dashed line indicates 0 currents) of various channels: WT, SUR1^K134A (the non-canonical PIP2 binding site mutation)/Kir6.2, SUR1/Kir6.2^R176A (the canonical PIP2 binding site mutation), and SUR1^K134A/Kir6.2^R176A double mutant, exposed alternately in 5 μM PIP2, 0.1 mM ATP, and 1 mM ATP as indicated by the bars above the recordings. The brief exposures to 0.1 mM and 1 mM ATP between PIP2 exposures were used to monitor the gradual decrease in ATP sensitivity as channel opening became increasingly stabilized by PIP2. b Group data of recordings shown in (a) comparing initial currents in K-INT at the time of patch excision. For each group, mean ± SEM of the data points are shown (WT, n = 12; SUR1^K134A, n = 6; Kir6.2^R176A, n = 7; SUR1^K134A/Kir6.2^R176A, n = 6 cells). Statistical significance was tested between mutants and WT or between double and single mutants using two-tailed unpaired t test with Welch’s correction, alpha = 0.05. *SUR1^K134A vs WT, p = 0.0468; ** Kir6.2^R176A vs WT, p = 0.0016; **SUR1^K134A/Kir6.2^R176A vs WT, p = 0.0014; ^#SUR1^K134A/Kir6.2^R176A vs SUR1^K134A, p = 0.0440; ^$SUR1^K134A/Kir6.2^R176A vs Kir6.2^R176A, p = 0.0411. Note the y-axis in this panel and panel (c) is in log scale for better visualization. c Comparison of the maximum fold-increase in currents after PIP2 exposure in different channels. For each group, mean ± SEM of the data points are shown (WT, n = 12; SUR1^K134A, n = 6; Kir6.2^R176A, n = 7; SUR1^K134A/Kir6.2^R176A, n = 5 cells). Statistical significance was tested between mutants and WT or between double and single mutants using two-tailed unpaired t test, alpha = 0.05. ***SUR1^K134A vs WT, p < 0.0001; ** Kir6.2^R176A vs WT, p = 0.0029; **SUR1^K134A/Kir6.2^R176A vs WT, p = 0.0012; ^#SUR1^K134A/Kir6.2^R176A vs SUR1^K134A, p = 0.0247; ^$SUR1^K134A/Kir6.2^R176A vs Kir6.2^R176A, p = 0.0353. d Comparison of the time of exposure in PIP2 for currents to reach maximum in different channels. For each group, mean ± SEM of the data points are shown (WT, n = 12; SUR1^K134A, n = 6; Kir6.2^R176A, n = 7; SUR1^K134A/Kir6.2^R176A, n = 6 cells). Statistical significance was tested between mutants and WT or between double and single mutants using two-tailed unpaired t test, alpha = 0.05. ***SUR1^K134A vs WT, p < 0.0001; ***Kir6.2^R176A vs WT, p = 0.0002; ***SUR1^K134A/Kir6.2^R176A vs WT, p < 0.0001; ^##SUR1^K134A/Kir6.2^R176A vs SUR1^K134A, p = 0.0071.
# (§2) For electrophysiology experiments, COSm6 cells were co-transfected with various combination of WT or mutant SUR1 and Kir6.2 cDNAs (SUR1 in pECE and Kir6.2 in pCDNA3) along with the cDNA for the Green Fluorescent Protein (to facilitate identification of transfected cells) using FuGENE® 6 (Promega). Mutant SUR1 and Kir6.2 were constructed using QuikChange (mutagenesis primers are shown in Supplementary Table 2). Cells were plated onto glass coverslips 24 h after transfection and recordings made in the following two days. All experiments were performed at room temperature. Micropipettes were pulled from non-heparinized Kimble glass (Fisher Scientific) on a horizontal puller (Sutter Instrument). Electrode resistance was typically 1-2 MΩ when filled with K-INT solution containing 140 mM KCl, 10 mM K-HEPES, 1 mM K-EGTA, 1 mM EDTA, pH 7.3. ATP was added as the potassium salt. Inside-out patches of cells bathed in K-INT were voltage-clamped with an Axopatch 1D amplifier (Axon Instruments). ATP or porcine brain PIP2 (Avanti Polar Lipids; prepared in K-INT and bath sonicated in ice water for 30 min before use) were added to K-INT as specified in the figure legend. All currents were measured at a membrane potential of −50 mV (pipette voltage = +50 mV). Data were analyzed using pCLAMP10 software (Axon Instrument). Off-line analysis was performed using Clampfit and GraphPad. […]
# [2] = target: T2, SUR1/Kir6.2^R176A channel (UniProt P70673+Q09427, R176A); assay: as above; format: biochemical, rat Kir6.2, hamster SUR1; settings: 5 μM PIP2; −50 mV; mean (± SEM)
# T2 construct: expressed in transfected cells; host or cells: COSm6
# T2 sequence (Q09427 whole entry): as the sequence (Q09427 whole entry K134A) above, with A134K counted along it
# T2 sequence (P70673 whole entry R176A): as the sequence (P70673 whole entry) above, with R176A counted along it
# Description: as §1, §2
# [3] = target: T3, WT (SUR1/Kir6.2) KATP channels (UniProt P70673+Q09427); assay: as above; format: biochemical, rat Kir6.2, hamster SUR1; settings: 5 μM PIP2
# T3 construct: expressed in transfected cells; host or cells: COSm6
# T3 sequence (P70673 whole entry): as the sequence (P70673 whole entry) above
# T3 sequence (Q09427 whole entry): as the sequence (Q09427 whole entry K134A) above, with A134K counted along it
# Description: as §1, §2
# [4] = target: T4, SUR1^K134A/Kir6.2^R176A double mutant channel (UniProt P70673+Q09427, K134A/R176A); assay: as above; format: biochemical, rat Kir6.2, hamster SUR1; settings: 5 μM PIP2; −50 mV; mean (± SEM)
# T4 construct: expressed in transfected cells; host or cells: COSm6
# T4 sequence (Q09427 whole entry K134A): as the sequence (Q09427 whole entry K134A) above
# T4 sequence (P70673 whole entry R176A): as the sequence (P70673 whole entry) above, with R176A counted along it
# Description: as §1, §2
# [5] = target: the molecule itself; assay: cryo-EM structure; SUR1/Kir6.2^Q52R channel co-expressed in COSm6 cells; membranes enriched with brain PIP2 (1 mg/mL) before solubilisation in digitonin; purified via the N-terminal FLAG tag on SUR1; 0.2 M NaCl, 0.1 M KCl, 0.05 M HEPES pH 7.5, 0.05% digitonin; no ATP or ADP added; graphene oxide-coated grids
molecule,measurement,setting,value
"CCCCCCCC(=O)OC[C@H](COP(=O)(O)O[C@@H]1[C@H](O)[C@H](O)[C@@H](OP(=O)(O)O)[C@H](OP(=O)(O)O)[C@H]1O)OC(=O)CCCCCCC [diC8-PIP2, diC8-PI(4,5)P2]",reversibility of channel activation,KATP channels; synthetic short-chain PIP2,readily reversible
"ATP-sensitive inward rectifier potassium channel Kir6.2 (pore subunit of the KATP channel) (not stated for the quoted measurement (this article's own constructs are rat Kir6.2, Rattus norvegicus, with hamster SUR1))",pKa,His175,7.16
"PI(3,4)P2",activation of KATP channels,KATP channels,activated equally well
"PI(3,4,5)P3",activation of KATP channels,KATP channels,activated equally well
PI(4)P,activation of KATP channels,KATP channels,activated
"PI(4,5)P2 [PIP2]",activation of KATP channels,KATP channels,activated equally well
same,maximum fold-increase in currents after PIP2 exposure,[1],3.96 ± 0.47 fold and 3.96 fold
same,time of exposure in PIP2 for currents to reach maximum,[1],193.83 ± 33.66 s and 193.83 s
same,maximum fold-increase in currents after PIP2 exposure,[2],48.74 ± 18.25 fold and 48.74 fold
same,time of exposure in PIP2 for currents to reach maximum,[2],298.57 ± 73.76 s and 298.57 s
same,PIP2 exposure until currents plateaued,[3],≤ 1 min
same,maximum fold-increase in currents after PIP2 exposure,"[3]; −50 mV, mean (± SEM)",1.45 fold
same,time of exposure in PIP2 for currents to reach maximum,"[3]; −50 mV, mean (± SEM)",33.17 ± 3.18 s and 33.17 s
same,maximum fold-increase in currents after PIP2 exposure,[4],299.65 ± 121.72 fold and 299.65 fold
same,time of exposure in PIP2 for currents to reach maximum,[4],419.33 ± 57.86 s and 419.33 s
"rat Kir6.2^Q52R (natural protein, Kir6.2, rat, with the neonatal diabetes mutation Q52R; the models hold residues 32-352 (N-terminal 31 residues and the tail beyond 352 not resolved); Four Kir6.2 subunits form the pore of the channel with four SUR1 subunits; the gene was cloned into pShuttle/AdEasy; PDB 6BAA (WT channel) was the starting model; also called Kir6.2 (pore-forming subunit of the SUR1/Kir6.2^Q52R KATP channel); …) MLSRKGIIPEEYVLTRLAEDPTEPRYRTRERRARFVSKKGNCNVAHKNIRERGRFLQDVFTTLVDLKWPHTLLIFTMSFLCSWLLFAMVWWLIAFAHGDLAPGEGTNVPCVTSIHSFSSAFLFSIEVQVTIGFGGRMVTEECPLAILILIVQNIVGLMINAIMLGCIFMKTAQAHRRAETLIFSKHAVITLRHGRLCFMLRVGDLRKSMIISATIHMQVVRKTTSPEGEVVPLHQVDIPMENGVGGNSIFLVAPLIIYHVIDSNSPLYDLAPSDLHHHQDLEIIVILEGVVETTGITTQARTSYLADEILWGQRFVPIVAEEDGRYSVDYSKFGNTVKVPTPLCTARQLDEDRSLLDALTLASSRGPLRKRSVAVAKAKPKFSISPDSLS",stoichiometry N,[5],4
